We go through 16 compounds from US4153692A, “Acylated imidazolyl-O,N-acetals, their pharmaceutically acceptable salts and metal complexes” (Bayer Aktiengesellschaft, priority 1976, dated 1979).

≈ marks a conversion by molar mass, not a printed value.

Assay [1] concerns Candida albicans. Kind of assay: Antimycotic in vitro activity (series dilution test, MIC). In kind it is cell-based. The note with it: meat extract/glucose broth, 28° C., 24 to 96 hours, 5 × 10^4 germs/ml, read-out: MIC values in γ/ml of nutrient medium with Candida albicans. How it is done: (§1) Antimycotic in vitro activity Description of the experiment The in vitro tests were carried out in a series dilution test using germ inocula with an average of 5 × 10^4 germs/ml of substrate. The nutrient medium used was a) for dermatophytes and molds: Sabouraud's milieu d'epreuve and b) for yeasts: meat extract/glucose broth. The incubation temperature was 28° C. and the incubation time was 24 to 96 hours.

For assay [2], the system named is Penicillium commune. The description is as above. In kind it is cell-based. The note with it: Sabouraud's milieu d'epreuve, 28° C., 24 to 96 hours, 5 × 10^4 germs/ml, read-out: MIC values in γ/ml of nutrient medium with Penicillium commune. How it is done: as §1
Assay [3] relates to Trichophyton mentagrophytes. The assay is described as above. The class given is cell-based. The note with it: Sabouraud's milieu d'epreuve, 28° C., 24 to 96 hours, 5 × 10^4 germs/ml, read-out: MIC values in γ/ml of nutrient medium with Trichophyton mentagrophytes. How it is done: as §1
In assay [4] the test system is Aspergillus niger. The assay is described as above. The class given is cell-based. Particulars: Sabouraud's milieu d'epreuve, 28° C., 24 to 96 hours, 5 × 10^4 germs/ml, read-out: MIC values in γ/ml of nutrient medium with Aspergillus niger. How it is done: as §1
Assay [5] deals with Microsporum felinum. Described as above. The class given is cell-based. The note with it: Sabouraud's milieu d'epreuve, 28° C., 24 to 96 hours, 5 × 10^4 germs/ml, read-out: MIC values in γ/ml of nutrient medium with Microsporum felinum. How it is done:
as §1

Assay [6] relates to Candida cells. Kind of assay: Antimycotic in vivo activity on candidosis in mice. Particulars: mice infected i.v. with Candida; 100 mg/kg orally one hour before and seven hours after infection; untreated survival about 5%. More on the design: species or system mice of the SPF-CF1 type. How it is done:
antimycotic in vivo activity on candidosis in mice Description of the experiment Mice of the SPF-CF1 type were infected intravenously with 1-2 × 10^6 logarithmically-growing Candida cells, which were suspended in physiological sodium chloride solution. One hour before and seven hours after the infection the animals were treated orally with, in each case, 100 mg of the formulations per kg of body weight. Untreated animals died of the infection 3 to 6 days after infection. The survival rate on the 6th day after infection was about 5% in the case of the untreated control animals

As for `CC(C)(C)c1ccc(OC(C(O)C(C)(C)C)n2ccnc2)cc1` (stereo not shown), the results for the MIC in assay [1], in assay [2] and in assay [3] were 64 µg/mL (≈ 202 µM), > 64 µg/mL and 32 µg/mL (≈ 101 µM), respectively.
Consider `CC(C)(C)C(O)C(Oc1ccccc1)n1ccnc1` (stereo not shown), for which the MIC in assay [4] is > 64 µg/mL; in assay [5], > 64 µg/mL; in assay [1], 32 µg/mL (≈ 123 µM); in assay [2], > 64 µg/mL; in assay [3] it was 32 µg/mL (≈ 123 µM).
With `CC(=O)OC(C(Oc1ccc(-c2ccccc2)cc1)n1ccnc1)C(C)(C)C` (stereo not shown), the MIC in assay [4] was < 1 µg/mL; in assay [5] it was 8 µg/mL (≈ 21.1 µM); in assay [1], 64 µg/mL (≈ 169 µM); in assay [2], 8 µg/mL (≈ 21.1 µM); in assay [3], < 1 µg/mL.
Turning to `CC(=O)OC(C(Oc1ccc(C2CCCCC2)cc1)n1ccnc1)C(C)(C)C` (stereo not shown), the values for the MIC in assay [1], in assay [2] and in assay [3] were 64 µg/mL (≈ 166 µM), 32 µg/mL (≈ 83.2 µM) and 8 µg/mL (≈ 20.8 µM), respectively.
On to `CC(=O)OC(C(Oc1ccccc1)n1ccnc1)C(C)(C)C` (stereo not shown), for which, in assay [6], the “Action (survivors on the 6th day after infection)” value (“Action” below) is on record as “++ (weak action = ≥ 40% survivors on the 6th day after infection)”.
The same measure, in the same setting: the same measure for `CC(=O)OC(C(Oc1ccc(F)cc1)n1ccnc1)C(C)(C)C` (stereo not shown): “+++ (action = ≥ 60% survivors on the 6th day after infection)”.
Turning to `CC(C)(C)C(O)C(Oc1cccc(Cl)c1)n1ccnc1` (stereo not shown) [drawing 4], the MIC was 32 µg/mL (≈ 109 µM) in assay [1], > 64 µg/mL in assay [2] and 64 µg/mL (≈ 217 µM) in assay [3].
Turning to `CC(=O)OC(C(Oc1ccc(Cl)cc1)n1ccnc1)C(C)(C)C` (stereo not shown) [drawing 7], the MIC in assay [4] turned out to be 64 µg/mL (≈ 190 µM); in assay [5], 32 µg/mL (≈ 95 µM); in assay [1], 32 µg/mL (≈ 95 µM); in assay [2], 32 µg/mL (≈ 95 µM); in assay [3], 4 µg/mL (≈ 11.9 µM).
As to `CC(=O)OC(C(Oc1ccc(Br)cc1)n1ccnc1)C(C)(C)C` (stereo not shown) [drawing 9], the MIC was 64 µg/mL (≈ 168 µM) in assay [4]; 32 µg/mL (≈ 83.9 µM) in assay [5]; 64 µg/mL (≈ 168 µM) in assay [1]; 32 µg/mL (≈ 83.9 µM) in assay [2]; 4 µg/mL (≈ 10.5 µM) in assay [3].
In the case of `CC(=O)OC(C(Oc1ccc(I)cc1)n1ccnc1)C(C)(C)C` (stereo not shown) [drawing 10], the MIC in assay [4] was 64 µg/mL (≈ 149 µM); in assay [5] it was 32 µg/mL (≈ 74.7 µM); in assay [1], 32 µg/mL (≈ 74.7 µM); in assay [2], 64 µg/mL (≈ 149 µM); in assay [3], 4 µg/mL (≈ 9.34 µM).
With `CC(=O)OC(C(Oc1ccc(-c2ccc(Cl)cc2)cc1)n1ccnc1)C(C)(C)C` (stereo not shown) [drawing 11], the MIC is 64 µg/mL (≈ 155 µM) in assay [4]; 32 µg/mL (≈ 77.5 µM) in assay [5]; 32 µg/mL (≈ 77.5 µM) in assay [1]; 64 µg/mL (≈ 155 µM) in assay [2]; < 1 µg/mL in assay [3].
`CC(C)(C)C(O)C(Oc1cccc(Cl)c1)n1ccnc1` (stereo not shown) [drawing 13]: in assay [6], the “Action” value is recorded as “+ (trace action = < 40% survivors on 6th day after infection)”.
Still for that read-out and setting: the result for `CC(=O)OC(C(Oc1ccc(Cl)cc1)n1ccnc1)C(C)(C)C` (stereo not shown) [drawing 15] reads “++++ (good action = ≥ 80% survivors on the 6th day after infectio)”; that for `CC(=O)OC(C(Oc1ccc(Br)cc1)n1ccnc1)C(C)(C)C` (stereo not shown) [drawing 16], “++ (weak action = ≥ 40% survivors on the 6th day after infection)”; that for `CC(=O)OC(C(Oc1ccc(-c2ccc(Cl)cc2)cc1)n1ccnc1)C(C)(C)C` (stereo not shown) [drawing 18], “++++ (good action = ≥ 80% survivors on the 6th day after infectio)”.
For `CC(=O)OC(C(Oc1ccc(I)cc1)n1ccnc1)C(C)(C)C` (stereo not shown) [drawing 20], in assay [6], the “Action” value is recorded as “+ (trace action = < 40% survivors on 6th day after infection)”.
